Each structure is given as a SMILES string.

This passage reports IC50 results from patent publication US9221809B2 (MERCK SHARP & DOHME CORP., priority 2011, dated 2015).

Chain of IRAK4 (Q9NWZ3 whole entry): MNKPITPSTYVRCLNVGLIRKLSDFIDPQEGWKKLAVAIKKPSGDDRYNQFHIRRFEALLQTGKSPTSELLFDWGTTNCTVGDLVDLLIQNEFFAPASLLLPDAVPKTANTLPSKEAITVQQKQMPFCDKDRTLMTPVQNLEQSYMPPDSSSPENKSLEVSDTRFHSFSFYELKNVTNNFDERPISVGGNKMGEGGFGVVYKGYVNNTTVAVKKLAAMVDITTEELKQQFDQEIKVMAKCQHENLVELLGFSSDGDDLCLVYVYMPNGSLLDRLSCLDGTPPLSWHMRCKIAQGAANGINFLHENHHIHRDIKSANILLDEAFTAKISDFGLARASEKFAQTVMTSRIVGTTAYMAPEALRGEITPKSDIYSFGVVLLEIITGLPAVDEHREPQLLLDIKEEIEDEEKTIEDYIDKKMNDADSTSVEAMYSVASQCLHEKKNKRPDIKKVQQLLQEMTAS

The target in the experiment is IRAK4 (Homo sapiens (Human), UniProt Q9NWZ3). The experiment is described as follows: IRAK4 kinase activity, IMAP fluorescence polarization assay. The following applies: 100 μM ATP; read-out: IRAK4 IC50. In kind it is biochemical. In outline:
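GST-tagged IRAK4 at 0.5 nM phosphorylates 100 nM fluorescent peptide substrate with 100 μM ATP in pH 7.2 Tris buffer containing MgCl2, DTT and Tween 20, 30 min at 25 °C. Reaction stopped with IMAP binding reagent; phosphorylation read as increased fluorescence polarization.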
On the technique in general: Polarisation of emitted light reports the rotation of a fluorescent probe.
Turning to `COc1ccc(N2CCN(c3nc(N[C@@H]4CCCNC4)c(-c4nc5ccccc5s4)c(=O)[nH]3)CC2)nc1` [Example 141, (R)-5-(benzo[d]thiazol-2-yl)-2-(4-(5-methoxypyridin-2-yl)piperazin-1-yl)-6-(piperidin-3-ylamino)pyrimidin-4(3H)-one], the IC50 (in general, the point on the concentration scale where inhibition reaches its midpoint) was determined as 5 nM.

On to `COc1ccnc(N2CCN(c3nc(N[C@@H]4CCCNC4)c(-c4nc5ccccc5s4)c(=O)[nH]3)CC2)c1` [Example 142, (R)-5-(benzo[d]thiazol-2-yl)-2-(4-(4-methoxypyridin-2-yl)piperazin-1-yl)-6-(piperidin-3-ylamino)pyrimidin-4(3H)-one], for which the half-inhibitory concentration (IC50) was 6 nM.

In the case of `COc1cccc(N2CCN(c3nc(N[C@@H]4CCCNC4)c(-c4nc5ccccc5s4)c(=O)[nH]3)CC2)n1` [Example 143, (R)-5-(benzo[d]thiazol-2-yl)-2-(4-(6-methoxypyridin-2-yl)piperazin-1-yl)-6-(piperidin-3-ylamino)pyrimidin-4(3H)-one], the IC50 stood at 10 nM.

With `O=c1[nH]c(N2CCN(c3ccc(Cl)cn3)CC2)nc(N[C@@H]2CCCNC2)c1-c1nc2ccccc2s1` [Example 144, (R)-5-(benzo[d]thiazol-2-yl)-2-(4-(5-chloropyridin-2-yl)piperazin-1-yl)-6-(piperidin-3-ylamino)pyrimidin-4(3H)-one], the IC50 was determined as 8 nM.

`O=c1[nH]c(N2CCN(c3cc(Cl)ccn3)CC2)nc(N[C@@H]2CCCNC2)c1-c1nc2ccccc2s1` [Example 145, (R)-5-(benzo[d]thiazol-2-yl)-2-(4-(4-chloropyridin-2-yl)piperazin-1-yl)-6-(piperidin-3-ylamino)pyrimidin-4(3H)-one]: the half-inhibitory concentration (IC50) amounted to 9 nM.

Take `O=c1[nH]c(N2CCN(c3ccccc3F)CC2)nc(N[C@@H]2CCCNC2)c1-c1nc2ccccc2s1` [Example 146, (R)-5-(benzo[d]thiazol-2-yl)-2-(4-(2-fluorophenyl)piperazin-1-yl)-6-(piperidin-3-ylamino)pyrimidin-4(3H)-one]: the IC50 was 16 nM.

As to `CS(=O)(=O)c1ccc(N2CCN(c3nc(N[C@@H]4CCCNC4)c(-c4nc5ccccc5s4)c(=O)[nH]3)CC2)c(Cl)c1` [Example 147, (R)-5-(benzo[d]thiazol-2-yl)-2-(4-(2-chloro-4-(methylsulfonyl)phenyl)piperazin-1-yl)-6-(piperidin-3-ylamino)pyrimidin-4(3H)-one], the half-maximal inhibitory concentration (IC50) was determined as 11 nM.

For `O=c1[nH]c(N2CCN(c3ccccc3C(F)(F)F)CC2)nc(N[C@@H]2CCCNC2)c1-c1nc2ccccc2s1` [Example 148, (R)-5-(benzo[d]thiazol-2-yl)-6-(piperidin-3-ylamino)-2-(4-(2-(trifluoromethyl)phenyl)piperazin-1-yl)pyrimidin-4(3H)-one], the IC50 is 45 nM.

Consider `O=c1[nH]c(N2CCN(c3nccs3)CC2)nc(N[C@@H]2CCCNC2)c1-c1nc2ccccc2s1` [Example 149, (R)-5-(benzo[d]thiazol-2-yl)-6-(piperidin-3-ylamino)-2-(4-(thiazol-2-yl)piperazin-1-yl)pyrimidin-4(3H)-one], for which the IC50 is 12 nM.

Turning to `CS(=O)(=O)c1cc(F)ccc1N1CCN(c2nc(N[C@@H]3CCCNC3)c(-c3nc4ccccc4s3)c(=O)[nH]2)CC1` [Example 150, (R)-5-(benzo[d]thiazol-2-yl)-2-(4-(4-fluoro-2-(methylsulfonyl)phenyl)piperazin-1-yl)-6-(piperidin-3-ylamino)pyrimidin-4(3H)-one], the IC50 is 14 nM.

For `O=c1[nH]c(N2CCN(c3ccccc3Cl)CC2)nc(N[C@@H]2CCCNC2)c1-c1nc2ccccc2s1` [Example 151, (R)-5-(benzo[d]thiazol-2-yl)-2-(4-(2-chlorophenyl)piperazin-1-yl)-6-(piperidin-3-ylamino)pyrimidin-4(3H)-one], the 50% inhibitory concentration (IC50) came out at 27 nM.

As to `O=c1[nH]c(N2CCN(c3cccc(C(F)(F)F)c3)CC2)nc(N[C@@H]2CCCNC2)c1-c1nc2ccccc2s1` [Example 152, (R)-5-(benzo[d]thiazol-2-yl)-6-(piperidin-3-ylamino)-2-(4-(3-(trifluoromethyl)phenyl)piperazin-1-yl)pyrimidin-4(3H)-one], the IC50 was determined as 42 nM.

For `O=c1[nH]c(N2CCN(c3ccc(Cl)c(Cl)c3)CC2)nc(N[C@@H]2CCCNC2)c1-c1nc2ccccc2s1` [Example 153, (R)-5-(benzo[d]thiazol-2-yl)-2-(4-(3,4-dichlorophenyl)piperazin-1-yl)-6-(piperidin-3-ylamino)pyrimidin-4(3H)-one], the IC50 came to 57 nM.

`COc1ccc(N2CCN(c3nc(N[C@@H]4CCCNC4)c(-c4nc5ccccc5s4)c(=O)[nH]3)CC2)cc1` [Example 154, (R)-5-(benzo[d]thiazol-2-yl)-2-(4-(4-methoxyphenyl)piperazin-1-yl)-6-(piperidin-3-ylamino)pyrimidin-4(3H)-one]: the IC50 worked out at 10 nM.

For `O=c1[nH]c(N2CCN(c3ccc4c(c3)OCO4)CC2)nc(N[C@@H]2CCCNC2)c1-c1nc2ccccc2s1` [Example 155, (R)-2-(4-(benzo[d][1,3]dioxol-5-yl)piperazin-1-yl)-5-(benzo[d]thiazol-2-yl)-6-(piperidin-3-ylamino)pyrimidin-4(3H)-one], the IC50 is 11 nM.

On to `CS(=O)(=O)c1ccccc1N1CCN(c2nc(N[C@@H]3CCCNC3)c(-c3nc4ccccc4s3)c(=O)[nH]2)CC1` [Example 156, (R)-5-(benzo[d]thiazol-2-yl)-2-(4-(2-(methylsulfonyl)phenyl)piperazin-1-yl)-6-(piperidin-3-ylamino)pyrimidin-4(3H)-one], for which the IC50 was determined as 9 nM.

With `Cc1cc(N2CCN(c3nc(N[C@@H]4CCCNC4)c(-c4nc5ccccc5s4)c(=O)[nH]3)CC2)sn1` [Example 157, (R)-5-(benzo[d]thiazol-2-yl)-2-(4-(3-methylisothiazol-5-yl)piperazin-1-yl)-6-(piperidin-3-ylamino)pyrimidin-4(3H)-one], the IC50 was determined as 8 nM.

As to `Cc1cnccc1N1CCN(c2nc(N[C@@H]3CCCNC3)c(-c3nc4ccccc4s3)c(=O)[nH]2)CC1` [Example 158, (R)-5-(benzo[d]thiazol-2-yl)-2-(4-(3-methylpyridin-4-yl)piperazin-1-yl)-6-(piperidin-3-ylamino)pyrimidin-4(3H)-one], the IC50 is 8 nM.

Turning to `Cn1cc(N2CCN(c3nc(N[C@@H]4CCCNC4)c(-c4nc5ccccc5s4)c(=O)[nH]3)CC2)cn1` [Example 159, (R)-5-(benzo[d]thiazol-2-yl)-2-(4-(1-methyl-1H-pyrazol-4-yl)piperazin-1-yl)-6-(piperidin-3-ylamino)pyrimidin-4(3H)-one], the IC50 amounted to 20 nM.

With `Cc1cnc(C)c(N2CCN(c3nc(N[C@@H]4CCCNC4)c(-c4nc5ccccc5s4)c(=O)[nH]3)CC2)n1` [Example 160, (R)-5-(benzo[d]thiazol-2-yl)-2-(4-(3,6-dimethylpyrazin-2-yl)piperazin-1-yl)-6-(piperidin-3-ylamino)pyrimidin-4(3H)-one], the IC50 is 22 nM.

For the compound `COc1ccc(OC)c(N2CCN(c3nc(N[C@@H]4CCCNC4)c(-c4nc5ccccc5s4)c(=O)[nH]3)CC2)c1` [Example 161, (R)-5-(benzo[d]thiazol-2-yl)-2-(4-(2,5-dimethoxyphenyl)piperazin-1-yl)-6-(piperidin-3-ylamino)pyrimidin-4(3H)-one], the IC50 stood at 14 nM.

Take `O=c1[nH]c(N2CCN(c3nnc(C4CC4)o3)CC2)nc(N[C@@H]2CCCNC2)c1-c1nc2ccccc2s1` [Example 162, (R)-5-(benzo[d]thiazol-2-yl)-2-(4-(5-cyclopropyl-1,3,4-oxadiazol-2-yl)piperazin-1-yl)-6-(piperidin-3-ylamino)pyrimidin-4(3H)-one]: the half-maximal inhibitory concentration (IC50) was found to be 27 nM.

On to `O=c1[nH]c(N2CCN(c3nncs3)CC2)nc(N[C@@H]2CCCNC2)c1-c1nc2ccccc2s1` [Example 163, (R)-2-(4-(1,3,4-thiadiazol-2-yl)piperazin-1-yl)-5-(benzo[d]thiazol-2-yl)-6-(piperidin-3-ylamino)pyrimidin-4(3H)-one], for which the IC50 amounted to 20 nM.

Consider `CN(C)[C@@H]1CCN(c2nc(N[C@@H]3CCCNC3)c(-c3ccc4ccccc4n3)c(=O)[nH]2)C1` [Example 164, 2-((R)-3-(dimethylamino)pyrrolidin-1-yl)-6-((R)-piperidin-3-ylamino)-5-(quinolin-2-yl)pyrimidin-4(3H)-one], for which the IC50 was determined as 62 nM.

With `CC(=O)NC1CCN(c2nc(N[C@@H]3CCCNC3)c(-c3ccc4ccccc4n3)c(=O)[nH]2)C1` (stereo partly drawn) [Example 165, N-(1-(6-oxo-4-((R)-piperidin-3-ylamino)-5-(quinolin-2-yl)-1,6-dihydropyrimidin-2-yl)pyrrolidin-3-yl)acetamide], the IC50 was 54 nM.

For `CN(C)[C@H]1CCN(c2nc(N[C@@H]3CCCNC3)c(-c3ccc4ccccc4n3)c(=O)[nH]2)C1` [Example 166, 2-((S)-3-(dimethylamino)pyrrolidin-1-yl)-6-((R)-piperidin-3-ylamino)-5-(quinolin-2-yl)pyrimidin-4(3H)-one], the IC50 is 158 nM.

As to `O=c1[nH]c(N2CCC(O)C2)nc(N[C@@H]2CCCNC2)c1-c1ccc2ccccc2n1` (stereo partly drawn) [Example 167, 2-(3-hydroxypyrrolidin-1-yl)-6-((R)-piperidin-3-ylamino)-5-(quinolin-2-yl)pyrimidin-4(3H)-one], the IC50 was found to be 20 nM.

On to `O=c1[nH]c(N2CC3CC3C2)nc(N[C@@H]2CCCNC2)c1-c1ccc2ccccc2n1` (stereo partly drawn) [Example 168, 2-(3-azabicyclo[3.1.0]hexan-3-yl)-6-((R)-piperidin-3-ylamino)-5-(quinolin-2-yl)pyrimidin-4(3H)-one], for which the 50% inhibitory concentration (IC50) amounted to 34 nM.

As to `CS(=O)(=O)C1CN(c2nc(N[C@@H]3CCCNC3)c(-c3ccc4ccccc4n3)c(=O)[nH]2)C1` [Example 169, (R)-2-(3-(methylsulfonyl)azetidin-1-yl)-6-(piperidin-3-ylamino)-5-(quinolin-2-yl)pyrimidin-4(3H)-one], the IC50 came to 32 nM.

As for `O=c1[nH]c(N2CC(O)(C(F)(F)F)C2)nc(N[C@@H]2CCCNC2)c1-c1ccc2ccccc2n1` [Example 170, (R)-2-(3-hydroxy-3-(trifluoromethyl)azetidin-1-yl)-6-(piperidin-3-ylamino)-5-(quinolin-2-yl)pyrimidin-4(3H)-one], the IC50 was 18 nM.
